This note sets out measurements from ChEMBL document CHEMBL1136132, “Effect of structural modification on the inhibitory selectivity of rutaecarpine derivatives on human CYP1A1, CYP1A2, and CYP1B1” (Bioorg Med Chem Lett, 2003).

Molecules are shown by their SMILES.

System in one assay: not listed separately
Description: Ratio for inhibition of Cytochrome P450 1B1 to that of Cytochrome P450 1A2. Type of assay: ADME.
Consider `COc1cccc2c(=O)n3c(nc12)-c1[nH]c2ccccc2c1CC3`, for which the ratio was 7.
Still for that read-out and setting: with `COc1ccc2c3c([nH]c2c1)-c1nc2ccccc2c(=O)n1CC3` the figure was 0.06; with `COc1cc2nc3n(c(=O)c2cc1OC)CCc1c-3[nH]c2ccccc12`, below 0.0003; with `COc1ccc2c(=O)n3c(nc2c1OC)-c1[nH]c2ccccc2c1CC3`, 8.
For `O=c1c2ccccc2nc2n1CCc1c-2[nH]c2ccccc12` [RUTAECARPINE], the ratio worked out at 3.
Take `O=c1c2cc(Br)ccc2nc2n1CCc1c-2[nH]c2ccccc12`: the ratio was determined as 0.8.
On the same count and under the same terms, with `O=c1c2cc(Cl)ccc2nc2n1CCc1c-2[nH]c2ccccc12` the figure was 3; with `CN1c2ccccc2C(=O)N2CCc3c([nH]c4ccccc34)[C@@H]21` [EVODIAMINE], 0.04.
The same measure, in the same setting: the same measure for `COc1ccc2nc3n(c(=O)c2c1)CCc1c-3[nH]c2ccccc12`: 0.5; for `COc1cc(OC)c2nc3n(c(=O)c2c1)CCc1c-3[nH]c2ccccc12`: 2.
The same measure, in the same setting: the same measure for `COc1ccc2c(=O)n3c(nc2c1)-c1[nH]c2ccccc2c1CC3`: 2; for `COc1ccc2[nH]c3c(c2c1)CCn1c-3nc2ccccc2c1=O`: 0.03.
For `O=c1c2ccc(Cl)cc2nc2n1CCc1c-2[nH]c2ccccc12`, the ratio is 1.
On the same count and under the same terms, with `COc1ccc2nc3n(c(=O)c2c1OC)CCc1c-3[nH]c2ccccc12` the figure was 0.08; with `C[n+]1c2n(c(=O)c3ccccc31)CCc1c-2[nH]c2ccccc12` [DEHYDROEVODIAMINE], 0.06.

In the next assay the target is T1, Cytochrome P450 1A2 (Homo sapiens, UniProt P05177).
T1 sequence (P05177 whole entry): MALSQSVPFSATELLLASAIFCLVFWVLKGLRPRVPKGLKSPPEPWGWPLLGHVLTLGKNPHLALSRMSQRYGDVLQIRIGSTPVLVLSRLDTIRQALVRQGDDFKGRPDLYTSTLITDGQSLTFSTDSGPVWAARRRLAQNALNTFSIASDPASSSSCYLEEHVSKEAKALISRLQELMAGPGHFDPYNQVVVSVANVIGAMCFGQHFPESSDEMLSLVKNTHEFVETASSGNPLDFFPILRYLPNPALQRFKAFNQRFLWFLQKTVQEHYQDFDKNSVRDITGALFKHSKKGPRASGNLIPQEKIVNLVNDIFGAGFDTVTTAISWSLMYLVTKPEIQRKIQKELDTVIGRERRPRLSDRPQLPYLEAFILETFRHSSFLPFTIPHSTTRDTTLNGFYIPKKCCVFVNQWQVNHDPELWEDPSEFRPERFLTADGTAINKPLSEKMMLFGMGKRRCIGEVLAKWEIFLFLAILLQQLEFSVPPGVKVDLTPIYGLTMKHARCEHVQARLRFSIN
Put plainly: Inhibition of Cytochrome P450 1A2 enzyme in bacterial membrane expressing human P450s. Type of assay: ADME, cell membranes.
In the case of `Oc1c2ccccc2nc2c3nc4ccccc4c-3ccn12`, the 50% inhibitory concentration (IC50) is 30 nM.
Same read-out and setting: the same measure for `COc1cccc2c(=O)n3c(nc12)-c1[nH]c2ccccc2c1CC3`: 11 nM.
On the same count and under the same terms, with `COc1ccc2c3c([nH]c2c1)-c1nc2ccccc2c(=O)n1CC3` the figure was 1980 nM; with `COc1cc2nc3n(c(=O)c2cc1OC)CCc1c-3[nH]c2ccccc12`, above 500000 nM.
Same read-out and setting: with `COc1ccc2c(=O)n3c(nc2c1OC)-c1[nH]c2ccccc2c1CC3` the figure was 29 nM; with `O=c1c2ccccc2nc2n1CCc1c-2[nH]c2ccccc12` [RUTAECARPINE], 22 nM; with `O=c1c2cc(Br)ccc2nc2n1CCc1c-2[nH]c2ccccc12`, 1500 nM.
`O=c1c2cc(Cl)ccc2nc2n1CCc1c-2[nH]c2ccccc12` showed an IC50 of 29 nM.
As to `COc1ccc2nc3n(c(=O)c2c1)CCc1c-3[nH]c2ccccc12`, half-maximal inhibition (IC50) required 280 nM.
As for `COc1cc(OC)c2nc3n(c(=O)c2c1)CCc1c-3[nH]c2ccccc12`, inhibition was half-maximal at 41 nM (IC50). This IC50 is about 6.8-fold lower than that of the molecule before.
On the same count and under the same terms, the same measure for `COc1ccc2c(=O)n3c(nc2c1)-c1[nH]c2ccccc2c1CC3`: 76 nM; for `COc1ccc2[nH]c3c(c2c1)CCn1c-3nc2ccccc2c1=O`: 2920 nM; for `O=c1c2ccc(Cl)cc2nc2n1CCc1c-2[nH]c2ccccc12`: 39 nM.
Still for that read-out and setting: the same measure for `CN1c2ccccc2C(=O)N2CCc3c([nH]c4ccccc34)[C@H]21` [EVODIAMINE]: 16300 nM; for `COc1ccc2nc3n(c(=O)c2c1OC)CCc1c-3[nH]c2ccccc12`: 1730 nM; for `C[n+]1c2n(c(=O)c3ccccc31)CCc1c-2[nH]c2ccccc12` [DEHYDROEVODIAMINE]: 5630 nM.

Another assay concerns the target T2, Cytochrome P450 1B1 (Homo sapiens, UniProt Q16678).
T2 sequence (Q16678 whole entry): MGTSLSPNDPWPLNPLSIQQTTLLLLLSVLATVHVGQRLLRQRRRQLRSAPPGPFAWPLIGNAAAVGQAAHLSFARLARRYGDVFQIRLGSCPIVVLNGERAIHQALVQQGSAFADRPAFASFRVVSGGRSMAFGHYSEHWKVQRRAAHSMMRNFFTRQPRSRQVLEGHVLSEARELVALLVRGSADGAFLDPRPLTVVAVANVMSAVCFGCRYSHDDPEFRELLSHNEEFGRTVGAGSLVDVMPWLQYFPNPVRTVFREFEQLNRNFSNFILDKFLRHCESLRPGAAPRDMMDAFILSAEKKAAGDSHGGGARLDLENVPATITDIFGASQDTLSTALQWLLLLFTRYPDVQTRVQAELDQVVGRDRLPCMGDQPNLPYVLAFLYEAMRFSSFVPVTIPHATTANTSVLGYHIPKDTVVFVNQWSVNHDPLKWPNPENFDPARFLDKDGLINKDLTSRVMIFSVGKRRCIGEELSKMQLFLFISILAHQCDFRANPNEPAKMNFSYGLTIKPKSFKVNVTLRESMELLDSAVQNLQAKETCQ
Put plainly: Inhibition of Cytochrome P450 1B1 enzyme in bacterial membrane expressing human P450s. Type of assay: ADME, cell membranes.
Molecule `COc1cccc2c(=O)n3c(nc12)-c1[nH]c2ccccc2c1CC3` had an IC50 of 71 nM.
The same measure, in the same setting: with `COc1ccc2c3c([nH]c2c1)-c1nc2ccccc2c(=O)n1CC3` the figure was 110 nM; with `COc1cc2nc3n(c(=O)c2cc1OC)CCc1c-3[nH]c2ccccc12`, 160 nM; with `COc1ccc2c(=O)n3c(nc2c1OC)-c1[nH]c2ccccc2c1CC3`, 2400 nM.
The same measure, in the same setting: the same measure for `O=c1c2ccccc2nc2n1CCc1c-2[nH]c2ccccc12` [RUTAECARPINE]: 55 nM; for `O=c1c2cc(Br)ccc2nc2n1CCc1c-2[nH]c2ccccc12`: 120 nM.
Still for that read-out and setting: the same measure for `O=c1c2cc(Cl)ccc2nc2n1CCc1c-2[nH]c2ccccc12`: 90 nM; for `COc1ccc2nc3n(c(=O)c2c1)CCc1c-3[nH]c2ccccc12`: 140 nM.
Consider `COc1cc(OC)c2nc3n(c(=O)c2c1)CCc1c-3[nH]c2ccccc12`, for which the IC50 is 80 nM.
Still for that read-out and setting: with `COc1ccc2c(=O)n3c(nc2c1)-c1[nH]c2ccccc2c1CC3` the figure was 170 nM; with `O=c1c2ccc(Cl)cc2nc2n1CCc1c-2[nH]c2ccccc12`, 37 nM.
Same read-out and setting: the same measure for `CN1c2ccccc2C(=O)N2CCc3c([nH]c4ccccc34)[C@H]21` [EVODIAMINE]: 690 nM; for `COc1ccc2nc3n(c(=O)c2c1OC)CCc1c-3[nH]c2ccccc12`: 140 nM.
For the molecule `C[n+]1c2n(c(=O)c3ccccc31)CCc1c-2[nH]c2ccccc12` [DEHYDROEVODIAMINE], the IC50 was found to be 330 nM.

The next assay addresses T2, Cytochrome P450 1B1. Put plainly: Inhibition of human Cytochrome P450 1B1 expressed in bacterial membrane. Type of assay: ADME, cell membranes.
`COc1ccc2[nH]c3c(c2c1)CCn1c-3nc2ccccc2c1=O` showed an IC50 of 84 nM. In other words, the double-digit nanomolar range.

A further assay concerns the target T3, Cytochrome P450 1A1 (Homo sapiens, UniProt P04798).
T3 sequence (P04798 whole entry): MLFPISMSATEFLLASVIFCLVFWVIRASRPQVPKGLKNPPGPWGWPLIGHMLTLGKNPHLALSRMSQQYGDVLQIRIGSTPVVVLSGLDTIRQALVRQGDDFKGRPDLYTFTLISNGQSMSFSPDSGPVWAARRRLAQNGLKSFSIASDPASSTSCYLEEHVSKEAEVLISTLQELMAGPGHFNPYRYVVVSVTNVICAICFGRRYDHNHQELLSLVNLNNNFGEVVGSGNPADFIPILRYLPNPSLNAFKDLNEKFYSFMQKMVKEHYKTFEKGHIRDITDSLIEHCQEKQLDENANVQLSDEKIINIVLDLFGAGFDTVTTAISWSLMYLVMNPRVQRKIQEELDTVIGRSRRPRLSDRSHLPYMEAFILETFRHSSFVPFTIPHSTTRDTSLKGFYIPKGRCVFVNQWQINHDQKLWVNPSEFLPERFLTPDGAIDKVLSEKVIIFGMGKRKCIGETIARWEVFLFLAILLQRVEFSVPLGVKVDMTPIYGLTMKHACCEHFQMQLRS
Put plainly: Inhibition of Cytochrome P450 1A1 enzyme in bacterial membrane expressing human P450s. Type of assay: ADME, cell membranes.
With `COc1cccc2c(=O)n3c(nc12)-c1[nH]c2ccccc2c1CC3`, half-maximal inhibition (IC50) was put at 450 nM.
Still for that read-out and setting: the same measure for `COc1ccc2c3c([nH]c2c1)-c1nc2ccccc2c(=O)n1CC3`: 2000 nM.
The molecule `COc1cc2nc3n(c(=O)c2cc1OC)CCc1c-3[nH]c2ccccc12` yielded an IC50 of 1580 nM.
Still for that read-out and setting: the same measure for `COc1ccc2c(=O)n3c(nc2c1OC)-c1[nH]c2ccccc2c1CC3`: 970 nM; for `O=c1c2ccccc2nc2n1CCc1c-2[nH]c2ccccc12` [RUTAECARPINE]: 260 nM; for `O=c1c2cc(Br)ccc2nc2n1CCc1c-2[nH]c2ccccc12`: 2470 nM.
Same read-out and setting: with `O=c1c2cc(Cl)ccc2nc2n1CCc1c-2[nH]c2ccccc12` the figure was 1920 nM.
Still for that read-out and setting: the same measure for `COc1ccc2nc3n(c(=O)c2c1)CCc1c-3[nH]c2ccccc12`: 1280 nM; for `COc1cc(OC)c2nc3n(c(=O)c2c1)CCc1c-3[nH]c2ccccc12`: 420 nM.
As for `COc1ccc2c(=O)n3c(nc2c1)-c1[nH]c2ccccc2c1CC3`, the midpoint of inhibition, the IC50, lay at 850 nM. Compared with the last molecule, the IC50 is about 2-fold higher.
Still for that read-out and setting: the same measure for `COc1ccc2[nH]c3c(c2c1)CCn1c-3nc2ccccc2c1=O`: 1780 nM; for `O=c1c2ccc(Cl)cc2nc2n1CCc1c-2[nH]c2ccccc12`: 1200 nM.
Take `CN1c2ccccc2C(=O)N2CCc3c([nH]c4ccccc34)[C@H]21` [EVODIAMINE]: the IC50 is 24600 nM.
Still for that read-out and setting: with `COc1ccc2nc3n(c(=O)c2c1OC)CCc1c-3[nH]c2ccccc12` the figure was 870 nM; with `C[n+]1c2n(c(=O)c3ccccc31)CCc1c-2[nH]c2ccccc12` [DEHYDROEVODIAMINE], 18000 nM.

System in the next assay: not listed separately
Put plainly: Ratio for inhibition of Cytochrome P450 1A1 to that of Cytochrome P450 1A2. Type of assay: ADME.
Consider `COc1cccc2c(=O)n3c(nc12)-c1[nH]c2ccccc2c1CC3`, for which the ratio amounted to 45.
On the same count and under the same terms, with `COc1ccc2c3c([nH]c2c1)-c1nc2ccccc2c(=O)n1CC3` the figure was 1; with `COc1cc2nc3n(c(=O)c2cc1OC)CCc1c-3[nH]c2ccccc12`, below 0.003.
Still for that read-out and setting: the same measure for `COc1ccc2c(=O)n3c(nc2c1OC)-c1[nH]c2ccccc2c1CC3`: 33; for `O=c1c2ccccc2nc2n1CCc1c-2[nH]c2ccccc12` [RUTAECARPINE]: 13.
Turning to `O=c1c2cc(Br)ccc2nc2n1CCc1c-2[nH]c2ccccc12`, the ratio is 16.
On the same count and under the same terms, with `O=c1c2cc(Cl)ccc2nc2n1CCc1c-2[nH]c2ccccc12` the figure was 64; with `CN1c2ccccc2C(=O)N2CCc3c([nH]c4ccccc34)[C@@H]21` [EVODIAMINE], 2.
With `COc1ccc2nc3n(c(=O)c2c1)CCc1c-3[nH]c2ccccc12`, the ratio came out at 5.
Same read-out and setting: with `COc1cc(OC)c2nc3n(c(=O)c2c1)CCc1c-3[nH]c2ccccc12` the figure was 11; with `COc1ccc2c(=O)n3c(nc2c1)-c1[nH]c2ccccc2c1CC3`, 11; with `COc1ccc2[nH]c3c(c2c1)CCn1c-3nc2ccccc2c1=O`, 0.6.
On the same count and under the same terms, with `O=c1c2ccc(Cl)cc2nc2n1CCc1c-2[nH]c2ccccc12` the figure was 30; with `COc1ccc2nc3n(c(=O)c2c1OC)CCc1c-3[nH]c2ccccc12`, 0.5.
Still for that read-out and setting: the same measure for `C[n+]1c2n(c(=O)c3ccccc31)CCc1c-2[nH]c2ccccc12` [DEHYDROEVODIAMINE]: 3.

What is called IC50 is the concentration at which inhibition is half-maximal. A higher IC50 goes with a need for much substance.
